The values that follow come from patent US20220336811A1, “CATHODE ACTIVE MATERIAL FOR SECONDARY BATTERY COMPRISING CHARGE TRANSFER COMPLEX AND METHOD FOR MANUFACTURING SAME” (SEOUL NATIONAL UNIVERSITY R&DB FOUNDATION, priority 2019, published 2022).

SMILES strings stand for the structures. Values after ≈ are worked out from the molar mass of the structure shown.

The conditions of this data set: 3 h. The protocol: The synthesized cathode mixtures were rolled with a stainless steel (SUS) rod and cut to a size of 1.5 cm×1.5 cm to produce cathodes for secondary batteries.
The cathodes produced in Embodiment 2 were put in 4 mL of a tetraethyleneglycol dimethylether (TEGDME) solvent, and stored in a 60° C. oven for 3 hours, and then solubilities of the cathode active materials for a solvent in an electrolyte were measured through ultraviolet-visible (UV-Vis) spectroscopy by using the used solvent.

The term solubility denotes the dissolved amount per volume that the medium holds. Higher therefore signals a readily soluble substance. For `N#CC(C#N)=c1ccc(=C(C#N)C#N)cc1` [compound 2, 7,7,8,8-tetracyanoquinodimethane], the solubility turned out to be 5.625 mM (≈ 1150 µg/mL). In other words, the millimolar range.
The figure for `c1ccc2nc3ccccc3nc2c1` [compound 1, phenazine] is 9.087 mM (≈ 1640 µg/mL).
